The values below come from US9771361B2, “Inhibitors of influenza viruses replication” (priority 2013, dated 2017).

“And” between values parts separate entries of the source, which are not always exact repeats. Identical values can stand only once. Counter-ions that a name gives are not always drawn. Like-named read-outs stand apart in the source and are kept apart here. Marks after values point to notes of the source that are not given here.

For data set [1], the system named is influenza virus A/PR/8/34. The format is in vivo, Balb/c mice.
Data set [2] has as its system influenza virus B/Mass/3/66. Type of data set: in vivo, Balb/c mice.
For data set [3], the system named is Influenza A/California/04/2009 (pndH1N1) virus. The format is in vivo, BALB/c mice.
Data set [4] has as its system Influenza A/Victoria/3/75 (H3N2) virus. The format is in vivo, BALB/c mice.
The subject of data set [5] is influenza A. The format is in vivo, mice.
Another data set relates to influenza A virus. The format is in vivo, mice.
The nature of data set [6]: Water activity tests: competition slurry of Form A seeded with Form F in IPA/water. The format is physicochemical. The following applies: Starting Forms A + F, Water Activity (aw) 0.9, Water wt % 2.80.
Data set [7] deals with Influenza A/Vietnam/1203/2004 (H5N1) virus. Also noted: species or system BALB/c mice. To be noted: mouse, in vivo.
Another data set relates to influenza A strains. The format is cell-based, influenza A virus.
The subject of a further data set is influenza B virus. Type of data set: cell-based.
Data set [8] concerns influenza A. Set-up: species or system mice. To be noted: mouse, in vivo.
In another data set the test system is influenza virus. Also noted: species or system mice. To be noted: mouse, in vivo.
In data set [9] the test system is influenza A/Wisconsin/67/2005 (H3N2) challenge strain virus. Set-up: species or system humans. The following applies: human, in vivo.
For data set [10] the test system is unchanged. Set-up: species or system humans. To be noted: human, in vivo. This is another data set of the same source.
The test system is the same in data set [11]. Also noted: species or system humans. The following applies: human, in vivo. The source holds these as a separate data set.
The conditions of data set [12]: human, in vivo.
For data set [13] the following is noted: in vivo.
Data set [14] in a line: Conversion of free base Form A to hydrated form B with humidity/water activity. The format is physicochemical. The following applies: ambient temperature.
[15] abbreviates: Compound (1) 0 mg/kg, Oseltamivir 10 mg/kg, […].
Setting [16] is: 10 mg/kg per treatment, twice a day for 10 days starting 2 hours prior to virus exposure.
The mark [17] stands for this setting: treatment start +48 h, 10 mg/kg BID.
Where [18] appears, read: treatment start +72 h, 10 mg/kg BID.

Turning to `CCOC(=O)C1=C[C@@H](OC(CC)CC)[C@H](NC(C)=O)[C@@H](N)C1` [Oseltamivir], the “Penh (Day 3)” value in data set [1] (setting [15]) is given as 2.36. For the same compound, the entries for the “Survival (21 days)” value in data set [1] (setting [15]) and in [2] (setting [15]) were 0% and 100%, respectively. Further, the “Weight Loss (Day 8)” value in [1] (setting [15]) worked out at 32.0%; in data set [2] (setting [15]) it was 12.8%. The “protection from death, BW loss and lung function” value in data set [1] (mouse, in vivo) is “did not protect from death reduce BW loss or restore lung function”; in data set [2] (mouse, in vivo) it was “complete protection from death, reduced BW loss and restored lung function”. In data set [2] (setting [15]), the “Penh (Day 6/7)” value worked out at 1.08. The Survivors/Total in data set [3] (setting [16]) is 10/10***; in [4] (setting [16]), 9/10***. For the same compound, the survival entry in the data set on influenza A [5] (10 mg/kg BID, same experiment) is given as “All of the oseltamivir-administered mice survived”. Also, the “Percent Body Weight Loss on Study Day 8” value with influenza A [5] (mouse, in vivo, 10 mg/kg) is −19.1%; in the data set with influenza A virus (mouse, in vivo, 10 mg/kg) it was −28.9%; in the data set with influenza A virus (setting [17]), −31.1%; with influenza A virus (setting [18]) it was −31.3%. The “Percent Survival” value with influenza A [5] (mouse, in vivo, 10 mg/kg) was 100%; in the data set on influenza A virus (mouse, in vivo, 10 mg/kg), 100%; with influenza A virus (setting [17]) it was 80%; with influenza A virus (setting [18]), 0%.
In the case of `O=C(O)[C@H]1C2CCC(CC2)C1Nc1nc(-c2c[nH]c3ncc(F)cc23)ncc1F` (stereo partly shown) [Form A of HCl salt of Compound (1).½H2O], the “Final Form” value in data set [6] was “converted to Form F of HCl salt of Compound (1).3H2O”.
Consider `O=C(O)[C@H]1C2CCC(CC2)C1Nc1nc(-c2c[nH]c3ncc(F)cc23)ncc1F` (stereo partly shown) [Compound (1)], for which, in [2] (mouse, in vivo), the “Penh (Day 6/7)” value was 1.90 and 2.06 and 2.04; the “Survival (21 days)” value amounted to 0%; the “Weight Loss (Day 8)” value is 33.6% and 33.9% and 33%; the “activity against influenza B in vivo” value is “little activity”. In [2] (mouse, in vivo), the “interference with the effectiveness of Oseltamivir” value is on record as “does not interfere with the effectiveness of Oseltamivir” and the “protection against morbidity, BW loss or loss of lung function” value was “no significant protection against morbidity, BW loss or loss of lung function”. Further, in data set [3] (mouse, in vivo), the Survivors/Total was 9/9*** and 10/10***. For the same compound, the Survivors/Total in [4] (mouse, in vivo) was 10/10***. In data set [7], the protection result was “complete protection”. Besides, in the data set on influenza A strains, the “activity against all influenza A strains tested” value was “potent activity”. In the data set on influenza B virus, the “activity against influenza B virus” value was “limited activity”. The “survival and BW loss” value in the data set with influenza A [5] (mouse, in vivo) is “complete survival and a dose-dependent reduction in BW loss”. In the data set on influenza A [5] (mouse, in vivo, 0.1 mg/kg), the “Percent Body Weight Loss on Study Day 8” value is given as −31.9% and the “Percent Survival” value was determined as 0%. In the data set on influenza A [5] (mouse, in vivo, 0.3 mg/kg), the “Percent Body Weight Loss on Study Day 8” value is on record as −30.4% and the “Percent Survival” value worked out at 25%. Moreover, in the data set with influenza A [5] (mouse, in vivo, 1 mg/kg), the “Percent Body Weight Loss on Study Day 8” value was −16.8% and the “Percent Survival” value came to 100%. Also, in the data set on influenza A [5] (mouse, in vivo, 3 mg/kg), the “Percent Body Weight Loss on Study Day 8” value is −8.7% and the “Percent Survival” value is recorded as 100%. Further, in the data set on influenza A [5] (mouse, in vivo, 10 mg/kg), the “Percent Body Weight Loss on Study Day 8” value is reported as −2.8% and the “Percent Survival” value amounted to 100%. For the same compound, in the data set on influenza A virus (mouse, in vivo), the protection result is “partial protection”; the “protection from death and BW loss” value is “complete protection from death and reduced BW loss”; the survival entry is listed as “complete survival”. In addition, in the data set on influenza A virus (mouse, in vivo, 1 mg/kg), the “Percent Survival” value is given as 100%. Also, the “reduction in lung viral titers” value in the data set on influenza A [8] was “robust, statistically significant reductions in lung viral titers”. The “correlation between lung titer reduction and Cmin” value with influenza virus is given as “clear correlation”. In addition, in data set [9], the “AUC viral shedding versus pooled placebo” value is “statistically significant reduction”, the “dose response trend in median AUC viral shedding in nasal swabs” value is “statistically significant dose response trend”, the “improvement over placebo in viral shedding” value is listed as “a similar magnitude of improvement over placebo was not observed” and the “peak viral shedding versus pooled placebo” value is listed as “significant reductions”. Also, the “rates of seroconversion versus placebo” value in [10] is reported as “no difference”. For the same compound, in [11], the “median AUC of influenza-like symptoms versus placebo” value was “statistically significant reduction”, the “median duration of composite clinical symptoms versus placebo” value is “statistically significant reduction” and the “median duration of influenza-like symptoms versus placebo” value is listed as “statistically significant reduction”. Moreover, in data set [12], the “discontinuations and serious adverse events” value was “no discontinuations due to Compound (1)-related adverse events (AE) nor were there any serious adverse events”; the “elevations in alanine aminotransferase (ALT)” value is given as “observed”; the “incidence of decreased blood phosphorus level” value is on record as 18.1%; the “incidence of nasal congestion” value came to 1.4%. In addition, in data set [12], the incidence of rhinorrhea was 4.2% and the tolerability result was “well tolerated”. Also, in data set [13], the “liver function abnormalities and serum phosphate decreases” value is “Neither liver function abnormalities nor serum phosphate decreases were observed”.
In the case of `O=C(O)[C@H]1C2CCC(CC2)[C@@H]1Nc1nc(-c2c[nH]c3ncc(F)cc23)ncc1F` [Form A of Compound (1)], the “water activity where the hydrate form (form B) was observed” value in [14] was “greater than 0.6”.
